# Measurements as given in patent US20090068290A1, “BIFEPRUNOX DOSES FOR TREATING SCHIZOPHRENIA” (priority 2006, published 2009).
# What was measured:
# [1] = tested on: adult subjects with schizophrenia; test: PANSS negative symptom subscale score, Clinical Study Two; assay type: in vivo, human; details: LOCF, ITT; for PANSS Negative Symptom Subscale Score, Trt Effect (bifeprunox—placebo): ANCOVA
# Experimental: Rating scale assessments were performed weekly, except for week 5, to measure the change from baseline to endpoint of the PANSS total score. Other assessments included: PANSS positive symptom subscale score, PANSS negative symptom subscale score, PANSS general pschopathology subscale score, BPRS total score, BPRS psychosis score, the CGI-S score, the CGI-I score, responder rates based on the PANSS total score, and the Calgary Depression Scale for Schizophrenia (CDSS). […]
# Subjects who completed this study had the option to continue in the long-term. […] Risperidone-treated subjects were titrated from 2 mg to 6 mg daily over a three-day period and were subsequently maintained at 6 mg/day for the remainder of the treatment period. […] Blood samples were also obtained at Screening/Baseline, Week 3, and Week 6 for clinical laboratory assessments.
# [2] = tested on: adult subjects with schizophrenia; test: Adverse events (TEAE, SAE, special interest, discontinuation, EPS-related TEAE), Clinical Study Three
# Experimental: There were four treatment arms in this study, approximately 144 subjects per arm. […] After completing the Single-Blind Placebo Lead-in Period of at least three days, bifeprunox-treated subjects were titrated from 0.25 mg up to 20 mg/day or 30 mg/day according to a standardized titration scheme over a seven- or eight-day period, respectively. When the assigned dose was reached, subjects were maintained at that dose for the remainder of the six week treatment period. […] Subjects were hospitalized (if not already inpatients) after eligibility for study entry was verified, starting from the Screening Visit until at least 10 days after Baseline. Subjects could be hospitalized longer than 10 days if considered medically necessary by the Investigator. Rating scale assessments for efficacy and abnormal movement disorders were done weekly except for Week 5. Safety assessments were performed at Screening, during treatment and at the end of the study. Subject satisfaction with study medication was assessed at Week 6. Samples of whole blood were obtained at Weeks 2, 4, and 6 for determination of bifeprunox in plasma.
# EPS were assessed using treatment-emergent adverse events such as akathisia, dyskinesia, parkinsoniam, etc. and/or formal rating scales such as SAS, BAS, and/or AIMS.
# [3] = Bifeprunox 30 mg, Week 6/Endpoint
# [4] = Bifeprunox 40 mg, Week 6/Endpoint
smiles,measurement,setting,value
"O=c1[nH]c2cccc(N3CCN(Cc4cccc(-c5ccccc5)c4)CC3)c2o1 [Bifeprunox, 7-[4-([1,1′-biphenyl]-3-ylmethyl)-1-piperazinyl]-2(3H)-benzoxazolone]","Change from Baseline in PANSS Negative Symptom Subscale Score, Mean (SD)","[1]; Bifeprunox 30 mg, Week 1",−1.6 (3.7)
same,"Change from Baseline in PANSS Negative Symptom Subscale Score, Median","[1]; Bifeprunox 30 mg, Week 1",−1
same,"Change from Baseline in PANSS Negative Symptom Subscale Score, Mean (SD)","[1]; Bifeprunox 30 mg, Week 2",2.6 (4.4)
same,"Change from Baseline in PANSS Negative Symptom Subscale Score, Median","[1]; Bifeprunox 30 mg, Week 2",−2
same,"Change from Baseline in PANSS Negative Symptom Subscale Score, Mean (SD)","[1]; Bifeprunox 30 mg, Week 3",−3.0 (5.0)
same,"Change from Baseline in PANSS Negative Symptom Subscale Score, Median","[1]; Bifeprunox 30 mg, Week 3",−3
same,"Change from Baseline in PANSS Negative Symptom Subscale Score, Mean (SD)","[1]; Bifeprunox 30 mg, Week 4",−3.1 (5.3)
same,"Change from Baseline in PANSS Negative Symptom Subscale Score, Median","[1]; Bifeprunox 30 mg, Week 4",−2
same,"Change from Baseline in PANSS Negative Symptom Subscale Score, Mean (SD)",[1]; [3],−3.1 (5.6)
same,"Change from Baseline in PANSS Negative Symptom Subscale Score, Median",[1]; [3],−2
same,"PANSS Negative Symptom Subscale Score, Trt Effect (bifeprunox—placebo)",[1]; [3],−1.4
same,"Change from Baseline in PANSS Negative Symptom Subscale Score, Mean (SD)","[1]; Bifeprunox 40 mg, Week 1",−1.2 (3.3)
same,"Change from Baseline in PANSS Negative Symptom Subscale Score, Median","[1]; Bifeprunox 40 mg, Week 1",−1
same,"Change from Baseline in PANSS Negative Symptom Subscale Score, Mean (SD)","[1]; Bifeprunox 40 mg, Week 2",−1.9 (4.0)
same,"Change from Baseline in PANSS Negative Symptom Subscale Score, Median","[1]; Bifeprunox 40 mg, Week 2",−2
same,"Change from Baseline in PANSS Negative Symptom Subscale Score, Mean (SD)","[1]; Bifeprunox 40 mg, Week 3",−2.2 (4.7)
same,"Change from Baseline in PANSS Negative Symptom Subscale Score, Median","[1]; Bifeprunox 40 mg, Week 3",−1
same,"Change from Baseline in PANSS Negative Symptom Subscale Score, Mean (SD)","[1]; Bifeprunox 40 mg, Week 4",−2.1 (4.9)
same,"Change from Baseline in PANSS Negative Symptom Subscale Score, Median","[1]; Bifeprunox 40 mg, Week 4",−1
same,"Change from Baseline in PANSS Negative Symptom Subscale Score, Mean (SD)",[1]; [4],−2.2 (5.4)
same,"Change from Baseline in PANSS Negative Symptom Subscale Score, Median",[1]; [4],−1
same,"PANSS Negative Symptom Subscale Score, Trt Effect (bifeprunox—placebo)",[1]; [4],−0.9
same,"AKATHISIA, %",[2]; BX 20 mg,3%
same,"CONVULSION, %",[2]; BX 20 mg,1%
same,"DIZZINESS, %",[2]; BX 20 mg,8%
same,"DYSKINESIA, %",[2]; BX 20 mg,1%
same,"EXTRAPYRAMIDAL DISORDER, %",[2]; BX 20 mg,3%
same,"HEADACHE, %",[2]; BX 20 mg,19%
same,"LOSS OF CONSCIOUSNESS, %",[2]; BX 20 mg,1 (<1%)
same,"MYALGIA, %",[2]; BX 20 mg,1 (<1%)
same,"NECK PAIN, %",[2]; BX 20 mg,1%
same,"NERVOUS SYSTEM DISORDERS, %",[2]; BX 20 mg,38%
same,"PAIN IN EXTREMITY, %",[2]; BX 20 mg,1 (<1%)
same,"SEDATION, %",[2]; BX 20 mg,5%
same,"SINUS HEADACHE, %",[2]; BX 20 mg,1 (<1%)
same,"SOMNOLENCE, %",[2]; BX 20 mg,3%
same,"TARDIVE DYSKINESIA, %",[2]; BX 20 mg,1 (<1%)
same,"TREMOR, %",[2]; BX 20 mg,1%
same,"AKATHISIA, %",[2]; BX 40 mg,3%
same,"CYST, %",[2]; BX 40 mg,1 (<1%)
same,"DIZZINESS, %",[2]; BX 40 mg,10%
same,"DYSKINESIA, %",[2]; BX 40 mg,1%
same,"EXTRAPYRAMIDAL DISORDER, %",[2]; BX 40 mg,1 (<1%)
same,"HEADACHE, %",[2]; BX 40 mg,19%
same,"MUSCULOSKELETAL STIFFNESS, %",[2]; BX 40 mg,1 (<1%)
same,"MYALGIA, %",[2]; BX 40 mg,1%
same,"NEOPLASMS BENIGN, MALIGNANT AND UNSPECIFIED (INCL CYSTS AND POLYPS), %",[2]; BX 40 mg,1 (<1%)
same,"NERVOUS SYSTEM DISORDERS, %",[2]; BX 40 mg,37%
same,"NEUROLOGICAL SYMPTOM, %",[2]; BX 40 mg,1 (<1%)
same,"PAIN IN JAW, %",[2]; BX 40 mg,1 (<1%)
same,"PARAESTHESIA, %",[2]; BX 40 mg,< 1%
same,"SEDATION, %",[2]; BX 40 mg,7%
same,"SOMNOLENCE, %",[2]; BX 40 mg,3%
